Source: PubChem BioAssay (NCI)
Values joined by “and” are separate entries in the source; they are usually repeats but may differ in a detail not shown here. Identical values can stand only once.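 Briefly, cells in 96-well plates were exposed to five compound concentrations for 48 h, and endpoints were estimated by linear interpolation. TGI: total growth inhibition.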

Tests used:
Experiment in all cases: NCI tumour cell line growth inhibition, 48 h
[1] = tested on: HOP-62 NSCLC
[2] = tested on: HCT-15 colon
[3] = tested on: NCI-H23 lung
[4] = tested on: SK-MEL-2 melanoma
[5] = tested on: SF-295 CNS
[6] = tested on: PC-3 prostate
[7] = tested on: A549 NSCLC
[8] = tested on: BT-549 breast
[9] = tested on: SF-539 CNS
[10] = tested on: MALME-3M melanoma
[11] = tested on: HS 578T breast

Compound: CS(=O)(=O)c1nc(-c2cc3c(c(S(C)(=O)=O)n2)CCCC3)cc2c1CCCCC2
- TGI [1]: > 100 µM
- TGI [2]: > 100 µM
- TGI [3]: > 100 µM
- TGI [4]: > 100 µM
- TGI [5]: > 100 µM
- TGI [6]: > 100 µM
- TGI [7]: > 100 µM
- TGI [8]: > 100 µM

Compound: COc1ccc(N=NC(C(=O)c2ccccc2)C(=O)c2ccccc2)cc1
- TGI [1]: 68.5 µM
- TGI [2]: > 100 µM
- TGI [3]: 65.3 µM
- TGI [4]: 61.2 µM
- TGI [5]: > 100 µM
- TGI [9]: 84.9 µM
- TGI [10]: 97 µM
- TGI [7]: 75 µM

Compound: CN(C(=O)C12C3C4C5C3C1(C(=O)C13C6C7C8C6C1C8C73)C5C42)C(C)(C)C (stereo unspecified)
- TGI [1]: > 50 µM
- TGI [2]: > 32.2 µM
- TGI [3]: > 50 µM
- TGI [4]: > 50 µM
- TGI [5]: > 50 µM
- TGI [9]: > 50 µM
- TGI [10]: > 50 µM
- TGI [7]: > 50 µM

Compound: CN(C)c1ccc(C=NCC2CCCN3CCCCC23)cc1 (stereo unspecified)
- TGI [1]: > 100 µM
- TGI [2]: > 100 µM
- TGI [11]: > 100 µM
- TGI [3]: > 100 µM
- TGI [5]: > 100 µM
- TGI [10]: > 100 µM
- TGI [6]: > 100 µM
- TGI [7]: > 100 µM
- TGI [8]: > 100 µM

Compound: c1ccc(C(NCC2CCO2)(c2ccccc2)c2ccccc2)cc1 (stereo unspecified)
- TGI [2]: 33.7 µM
- TGI [3]: 30.9 µM
- TGI [4]: 42.5 µM
- TGI [5]: 28.9 µM
- TGI [9]: 33.6 µM
- TGI [10]: 35.1 µM
- TGI [6]: 31.6 µM
- TGI [7]: 30.6 µM
- TGI [8]: 38.7 µM

Compound: O=C(OC1C2OC(=O)c3cc(O)c(O)c(O)c3Oc3cc4c(c(O)c3O)-c3c(cc(O)c(O)c3O)C(=O)OCC3OC(O)C(OC(=O)c5cc(O)c(O)c(O)c5Oc5cc6c(c(O)c5O)-c5c(cc(O)c(O)c5O)C(=O)OC1C(COC6=O)OC2O)C(OC(=O)c1cc(O)c(O)c(O)c1)C3OC4=O)c1cc(O)c(O)c(O)c1 (stereo unspecified)
- TGI [1]: 54.3 µM
- TGI [11]: 63.8 µM
- TGI [3]: 62.6 µM
- TGI [5]: 57.5 µM
- TGI [9]: 65.6 µM
- TGI [10]: > 100 µM
- TGI [6]: 87.7 µM
- TGI [7]: 39.7 µM

Compound: c1ccc2c(c1)c1c(n2CCOCCN2CCCC2)CCCC1
- TGI [1]: 28.9 µM
- TGI [2]: 31.2 µM
- TGI [11]: 45.3 µM
- TGI [3]: 65.2 µM
- TGI [4]: 30.7 µM
- TGI [5]: > 100 µM
- TGI [9]: 29.9 µM
- TGI [10]: 31.3 µM
- TGI [6]: 66 µM
- TGI [7]: > 100 µM

Compound: C/C=C(/I)CBr
- TGI [1]: 43.4 µM
- TGI [2]: 51.2 µM
- TGI [3]: 31.4 µM
- TGI [4]: 28.4 µM
- TGI [9]: 32.5 µM
- TGI [10]: 31.4 µM
- TGI [7]: 66.7 µM

Compound: O=C(O)CCC(=O)c1ccc2c(c1)C(C(=O)O)CC2 (stereo unspecified)
- TGI [1]: > 100 µM
- TGI [2]: > 100 µM
- TGI [11]: > 100 µM
- TGI [3]: > 100 µM
- TGI [4]: > 100 µM
- TGI [5]: > 100 µM
- TGI [9]: > 100 µM
- TGI [10]: > 100 µM
- TGI [6]: > 100 µM
- TGI [7]: > 100 µM

Compound: CC(C)(C)OC(=O)N(CCCCNC(=O)OCc1ccccc1)CCCNC(=O)OCc1ccccc1
- TGI [1]: > 100 µM
- TGI [2]: > 100 µM
- TGI [11]: > 100 µM
- TGI [3]: > 100 µM
- TGI [4]: > 100 µM
- TGI [5]: > 100 µM
- TGI [9]: > 100 µM
- TGI [6]: > 100 µM
- TGI [7]: > 100 µM
- TGI [8]: > 100 µM

Compound: Cc1c2c3ccccc3nc-2n(C)c2ccccc12
- TGI [1]: 31.9 µM
- TGI [2]: 11.3 µM
- TGI [11]: 20 µM
- TGI [3]: 13.9 µM
- TGI [5]: 24.6 µM
- TGI [9]: 10.8 µM
- TGI [10]: 5.98 µM
- TGI [6]: 7.5 µM
- TGI [7]: 9.19 µM
- TGI [8]: 19.3 µM

Compound: COc1ccc(-n2[nH]nc(C(N)=O)c2=O)cc1
- TGI [1]: > 100 µM
- TGI [2]: > 100 µM
- TGI [11]: > 100 µM
- TGI [3]: > 100 µM
- TGI [4]: > 100 µM
- TGI [5]: > 100 µM
- TGI [10]: > 100 µM
- TGI [6]: > 100 µM
- TGI [7]: > 100 µM
- TGI [8]: > 100 µM

Compound: N#CN/C(N)=N/C/N=C(\N)NC#N
- TGI [1]: > 100 µM
- TGI [2]: 50.2 µM
- TGI [3]: > 100 µM
- TGI [4]: > 100 µM
- TGI [5]: > 100 µM
- TGI [9]: > 100 µM
- TGI [10]: > 100 µM
- TGI [7]: > 100 µM

Compound: OC1(c2ccc(-c3ccccc3)cc2)c2ccccc2C2=NCCN21 (stereo unspecified)
- TGI [1]: 43.5 µM
- TGI [2]: > 100 µM
- TGI [11]: 75.4 µM
- TGI [3]: 52.6 µM
- TGI [4]: 24.9 µM
- TGI [5]: > 100 µM
- TGI [6]: 62.9 µM
- TGI [7]: > 100 µM
- TGI [8]: > 100 µM

Compound: COc1ccc(-n2c(N)c(C#N)[nH]c2=O)cc1
- TGI [1]: > 10 µM
- TGI [2]: > 10 µM
- TGI [11]: > 10 µM
- TGI [3]: > 10 µM
- TGI [4]: > 10 µM
- TGI [5]: 7.91 µM
- TGI [9]: > 10 µM
- TGI [10]: > 10 µM
- TGI [6]: > 10 µM
- TGI [7]: > 10 µM

Compound: CN(C)CCNC(=O)c1ccc(NCCCN(C)CCCNc2ccc(C(=O)NCCN(C)C)c3[nH]c4ccccc4c(=O)c23)c2c(=O)c3ccccc3[nH]c12
- TGI [1]: 0.459 µM
- TGI [2]: 4.52 µM
- TGI [3]: 0.315 µM
- TGI [4]: 0.262 µM
- TGI [5]: 1.31 µM
- TGI [9]: 2.24 µM
- TGI [10]: 0.302 µM
- TGI [6]: 0.331 µM
- TGI [7]: 0.313 µM
- TGI [8]: 1.63 µM

Compound: C=C1C(=O)O[C@H]2C[C@@]3(COC(C)=O)C=COC=C(COC(=O)C(C)C)C3CC12 (stereo partly specified)
- TGI [1]: > 100 µM
- TGI [2]: > 100 µM
- TGI [11]: > 100 µM
- TGI [3]: > 100 µM
- TGI [5]: > 100 µM
- TGI [9]: > 100 µM
- TGI [10]: > 100 µM
- TGI [6]: > 100 µM
- TGI [7]: > 100 µM
- TGI [8]: > 100 µM

Compound: CO/N=C(/C)c1cccc(Nc2nc3ccccc3c3[nH]c4ccccc4c23)c1
- TGI [1]: 21.7 µM
- TGI [2]: 23.6 µM
- TGI [11]: 35.8 µM
- TGI [3]: 23.1 µM
- TGI [4]: 23.5 µM
- TGI [5]: 14.6 µM
- TGI [9]: 28.1 µM
- TGI [6]: 22.3 µM
- TGI [7]: 24.7 µM

Compound: Nc1[nH]nc(Nc2ccc(Cl)cc2)c1P(=O)(c1ccccc1)c1ccccc1
- TGI [1]: 49.1 µM
- TGI [2]: 98.4 µM
- TGI [11]: 37.2 µM
- TGI [3]: > 100 µM
- TGI [4]: 43.1 µM
- TGI [5]: 44.5 µM
- TGI [9]: 42.6 µM
- TGI [10]: 47.9 µM
- TGI [6]: 61.1 µM
- TGI [7]: > 100 µM

Compound: CCC1(N=[N+]=[N-])C(=O)c2ccccc2N(C)C1=O (stereo unspecified)
- TGI [1]: > 100 µM
- TGI [2]: > 100 µM
- TGI [3]: > 100 µM
- TGI [4]: > 100 µM
- TGI [5]: > 100 µM
- TGI [9]: > 100 µM
- TGI [10]: > 100 µM
- TGI [7]: > 100 µM

Compound: CCCCCCCCCCCCCCCCNC(=O)C(=O)/C=C(\O)c1ccc(C)cc1
- TGI [1]: > 10 µM
- TGI [2]: > 10 µM
- TGI [11]: > 10 µM
- TGI [3]: > 10 µM
- TGI [4]: > 10 µM
- TGI [5]: > 10 µM
- TGI [9]: > 10 µM
- TGI [10]: > 10 µM
- TGI [6]: > 10 µM

Compound: O=c1cc(CO)oc2c3c(cc(O)c12)OCC(COC1OC(CO)C(O)C(O)C1O)=CC3 (stereo unspecified)
- TGI [1]: > 100 µM
- TGI [2]: > 100 µM
- TGI [3]: > 100 µM
- TGI [4]: > 100 µM
- TGI [5]: > 100 µM
- TGI [9]: > 100 µM
- TGI [7]: > 100 µM

Compound: CN(Cc1cnc2nc(N)nc(N)c2n1)c1ccc(C(=O)N[C@@H](CCC(=O)O)C(=O)O)cc1
- TGI [2]: > 250 µM
- TGI [11]: > 250 µM
- TGI [3]: 117 µM
- TGI [4]: > 250 µM
- TGI [5]: 231 µM and > 250 µM
- TGI [10]: > 250 µM
- TGI [6]: > 250 µM
- TGI [7]: > 250 µM
- TGI [8]: > 250 µM
